# Experimental data from PMC5114681, “Molecular Mechanism of Action of Antimalarial Benzoisothiazolones: Species-Selective Inhibitors of the Plasmodium spp. MEP Pathway enzyme, IspD” (Scientific Reports, 2016).
# Entries after “also recorded” stand apart in the source; their conditions may differ.
# Tests used:
# P. falciparum strain 3D7 [1] = assay: Parasite sensitivity assay (PicoGreen, 72 hours), strain 3D7; assay type: cell-based; conditions: Plasmodium falciparum, mean and SEM, n ≥ 3, read-out: (3D7) EC50, P. falciparum growth in culture
# Experimental: (§1) Unless otherwise specified, P. falciparum parasites were cultured as previously described, in a 2% suspension of human erythrocytes in RPMI-1640 medium (Sigma Aldrich) supplemented with 27 mM sodium bicarbonate, 11 mM glucose, 5 mM HEPES, 1 mM sodium pyruvate, 0.37 mM hypoxanthine, 0.01 mM thymidine, 10 μg ml^−1 gentamicin and 0.5% Albumax (Life Technologies). Cultures were maintained in 5% O2/5% CO2/90% N2 at 37 °C. Parasite growth was monitored by microscopy of Giemsa-stained parasites. 3D7 strain parasites were obtained from the Malaria Research and Reference Reagent Resource Center, ATCC, Manassas, Virginia. D6 and 7G8 strains were obtained through BEI Resources Repository, NIAID, NIH: Plasmodium falciparum, Strain D6, MRA-285, contributed by D.E. Kyle; Plasmodium falciparum, Strain 7G8, MRA-152, contributed by David Walliker. The IPC 5202 strain was provided by the Malaria Research and Reference Reagent Resource Center (MR4) for distribution by BEI Resources NIAID, NIH: Plasmodium falciparum, Strain IPC 5202, also known as CAM3.IR539T; MRA-1240, contributed by Didier Ménard.
# (§2) Asynchronous cultures of P. falciparum strain 3D7 were diluted to 1% parasitemia and cultured at indicated concentrations of inhibitor compounds in 100 μL culture volumes. During rescue experiments, parasite growth medium was supplemented with 200 μM isopentenyl pyrophosphate (IPP; Echelon Biosciences). After 72 hours, parasite growth was quantified using PicoGreen dye (Invitrogen) to measure DNA content as previously described. PicoGreen fluorescence was measured (485 nm excitation/528 nm emission) in a POLARStar Omega microplate reader (BMG Labtech).
# PvIspD = PvIspD (Plasmodium vivax, UniProt A5K9U5); assay: IspD enzyme assay (EnzChek phosphate release), recombinant PvIspD; assay type: biochemical, P. vivax
# PvIspD, sequence (A5K9U5 entry or part of it): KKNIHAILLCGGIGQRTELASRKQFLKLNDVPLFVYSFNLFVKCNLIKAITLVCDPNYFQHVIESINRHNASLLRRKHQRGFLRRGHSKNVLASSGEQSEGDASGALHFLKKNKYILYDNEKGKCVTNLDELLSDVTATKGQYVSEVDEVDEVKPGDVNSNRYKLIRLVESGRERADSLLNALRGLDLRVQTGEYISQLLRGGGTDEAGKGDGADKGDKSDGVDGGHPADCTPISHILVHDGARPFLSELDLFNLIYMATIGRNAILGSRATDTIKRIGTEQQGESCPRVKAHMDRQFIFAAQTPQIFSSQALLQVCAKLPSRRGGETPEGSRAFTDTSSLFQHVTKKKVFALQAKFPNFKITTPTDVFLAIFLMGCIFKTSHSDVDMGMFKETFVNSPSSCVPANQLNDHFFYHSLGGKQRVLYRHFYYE
# Experimental: (§3) Phosphate released by IspD was quantified using the EnzChek Phosphate Assay Kit (Invitrogen, Life Technologies), as previously described. 2-Amino-6-mercapto-7-methylpurine riboside (MESG) and purine nucleoside phosphorylase (PNP) were diluted and stored according to the manufacturer’s instructions. Final concentrations of reagents were as follows: 100 mM NaCl, 25 mM Tris pH 7.5, 7.5 mM MgCl2, 1 U/ml PNP, 0.1 U/mL yeast inorganic pyrophosphatase (New England Biolabs). […] Reactions were performed in 50 μL final volumes in 96-well clear flat bottom plates. In general, enzymes, buffers, and inhibitors were pre-warmed approximately 15 minutes at 37 °C, and reactions were then initiated by addition of the MEP substrate. […] Assays using E. coli IspD used 7.5 nM EcIspD-wt or 75 nM EcIspD-A14C. Absorbance at 360 nm was measured over time on a BMG POLARStar plate reader, preheated to 37 °C. Nonlinear regression analysis was performed using GraphPad Prism software. […] Slopes of changing absorbance values were converted to (μM MEP) (μM enzyme)^−1 s^−1 using a phosphate standard curve.
# PfIspD = PfIspD (Plasmodium falciparum, UniProt Q8I273); assay: biochemical; conditions: mean and SEM; n ≥ 3
# PfIspD, sequence (Q8I273 entry or part of it): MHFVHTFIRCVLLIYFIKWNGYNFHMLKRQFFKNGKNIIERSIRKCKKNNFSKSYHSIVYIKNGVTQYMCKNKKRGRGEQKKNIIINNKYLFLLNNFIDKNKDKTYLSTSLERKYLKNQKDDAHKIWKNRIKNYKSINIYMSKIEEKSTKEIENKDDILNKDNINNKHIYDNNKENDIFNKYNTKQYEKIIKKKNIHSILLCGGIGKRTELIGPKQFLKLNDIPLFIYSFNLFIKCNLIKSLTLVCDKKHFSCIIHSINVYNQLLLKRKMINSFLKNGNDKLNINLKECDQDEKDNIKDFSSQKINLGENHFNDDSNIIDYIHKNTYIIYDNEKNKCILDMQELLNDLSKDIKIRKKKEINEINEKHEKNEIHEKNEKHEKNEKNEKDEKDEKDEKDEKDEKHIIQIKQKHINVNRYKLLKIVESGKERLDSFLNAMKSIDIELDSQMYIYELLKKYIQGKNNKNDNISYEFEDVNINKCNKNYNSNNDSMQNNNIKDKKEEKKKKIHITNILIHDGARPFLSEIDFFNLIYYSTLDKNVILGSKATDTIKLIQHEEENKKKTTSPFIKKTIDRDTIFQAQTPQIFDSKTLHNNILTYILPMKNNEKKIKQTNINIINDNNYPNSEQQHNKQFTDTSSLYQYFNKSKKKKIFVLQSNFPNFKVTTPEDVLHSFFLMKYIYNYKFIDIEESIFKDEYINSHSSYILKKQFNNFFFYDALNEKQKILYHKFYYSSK
# Experimental: as §3
# A. thaliana IspD = system: A. thaliana IspD; parameters: method as in PMID 24446431, PMID 21766403, PMID 22975264; conditions: known IspD inhibitors, Fig. 2; cited from earlier work
# P. vivax IspD = system: P. vivax IspD; parameters: method as in PMID 24446431, PMID 21766403, PMID 22975264; conditions: known IspD inhibitors, Fig. 2; cited from earlier work
# P. falciparum IspD = system: P. falciparum IspD; parameters: method as in PMID 26783558, PMID 25367906, PMID 24247137, PMID 25754494; conditions: known IspD inhibitors, Fig. 2; cited from earlier work
# [2] = Calculated ClogD and aqueous solubility (AstraZeneca algorithms); conditions: predicted values
# PfIspD-C202A = assay: IspD enzyme assay, recombinant PfIspD-C202A mutant; assay type: biochemical, P. falciparum; conditions: prolonged (50 min.) incubation
# Experimental: as §3
# P. falciparum strain 3D7 [3] = assay: Parasite growth inhibition with and without IPP supplementation (rescue); assay type: cell-based; conditions: for IPP rescue of parasite growth: 200 μM IPP supplementation
# Experimental: as §2
# EcIspD-A14C = molecular target: T1, EcIspD-A14C (Escherichia coli, UniProt Q46893, A14C); assay: IspD enzyme assay, recombinant EcIspD-A14C mutant; assay type: biochemical, E. coli
# T1 construct: Amplicons containing the entire E. coli IspD gene were generated; 6His (N); made in house; host or cells: Artic Express (DE3) RIL E. coli
# T1 sequence (Q46893 whole entry A14C): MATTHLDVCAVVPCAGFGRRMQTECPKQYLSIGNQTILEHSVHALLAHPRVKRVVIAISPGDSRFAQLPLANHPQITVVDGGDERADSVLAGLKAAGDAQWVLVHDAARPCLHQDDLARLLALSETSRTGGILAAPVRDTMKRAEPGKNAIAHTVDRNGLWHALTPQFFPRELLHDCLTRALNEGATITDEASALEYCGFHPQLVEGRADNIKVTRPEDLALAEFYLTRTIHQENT
# Experimental: as §3
# P. falciparum strain 7G8 = assay: Parasite sensitivity assay, strain 7G8 (multidrug (chloroquine)-resistant); assay type: cell-based; conditions: Plasmodium falciparum, mean and SEM, read-out: Whole Cell Growth Inhibition EC50
# Experimental: as §1, with “The IPC 5202 strain was provided by the Malaria Research and Reference Reagent Resource Center (MR4) for distribution by BEI Resources NIAID, NIH: Plasmodium falciparum, Strain IPC 5202, also known as CAM3.IR539T; MRA-1240, contributed by Didier Ménard.” left out
# as §2, with “During rescue experiments, parasite growth medium was supplemented with 200 μM isopentenyl pyrophosphate (IPP; Echelon Biosciences).” left out
# P. falciparum strain D6 = assay: Parasite sensitivity assay, strain D6 (mefloquine-resistant); assay type: cell-based; conditions: Plasmodium falciparum, mean and SEM, read-out: Whole Cell Growth Inhibition EC50
# Experimental: as §1, with “The IPC 5202 strain was provided by the Malaria Research and Reference Reagent Resource Center (MR4) for distribution by BEI Resources NIAID, NIH: Plasmodium falciparum, Strain IPC 5202, also known as CAM3.IR539T; MRA-1240, contributed by Didier Ménard.” left out
# as §2, with “During rescue experiments, parasite growth medium was supplemented with 200 μM isopentenyl pyrophosphate (IPP; Echelon Biosciences).” left out
# MEP pathway = assay: MEP metabolite profiling (LC-MS/MS of DOXP and MEcPP) in treated parasites; conditions: 10 hours; for MEcPP levels compared to untreated parasites: 3 μM 8 or 5 μM FSM
# [4] = system: P. falciparum strain IPC 5202; assay: Parasite sensitivity assay, strain IPC 5202 (artemisinin-resistant); assay type: cell-based; conditions: Plasmodium falciparum, mean and SEM, read-out: Whole Cell Growth Inhibition EC50
# Experimental: as §1, with “The IPC 5202 strain was provided by the Malaria Research and Reference Reagent Resource Center (MR4) for distribution by BEI Resources NIAID, NIH: Plasmodium falciparum, Strain IPC 5202, also known as CAM3.IR539T; MRA-1240, contributed by Didier Ménard.” left out
# as §2, with “During rescue experiments, parasite growth medium was supplemented with 200 μM isopentenyl pyrophosphate (IPP; Echelon Biosciences).” left out
# EcIspD-wt = molecular target: T2, EcIspD-wt (Escherichia coli, UniProt Q46893); assay: IspD enzyme assay, recombinant EcIspD-wt; assay type: biochemical, E. coli
# T2 construct: 6His; made in house; host or cells: Artic Express (DE3) RIL E. coli
# T2 sequence (Q46893 whole entry): as the sequence (Q46893 whole entry A14C) above, with C14A counted along it
# Experimental: as §3
compound,measurement,setting,value
"O=c1c2ccccc2sn1-c1cccc(-c2ccc(CN3CCC(F)CC3)cc2)c1 [compound 12, 2-(4’-((4-fluoropiperidin-1-yl)methyl)-[1,1’-biphenyl]-3-yl)benzo[d]isothiazol-3(2H)-one]",EC50,P. falciparum strain 3D7 [1],0.32 ± 0.092 µM
same,IC50,PvIspD,0.24 ± 0.1 µM
same,IC50,PfIspD,0.86 ± 0.11 µM
N#Cc1cnn2c(O)c(Cc3ccccc3)c(Cl)cc12 [3b],IC50,A. thaliana IspD,0.035 µM
COc1ccc2nc(NC(=O)c3cc(-c4ccccc4O)n[nH]3)sc2c1 [compound 2],IC50,A. thaliana IspD,1.8 µM
Oc1c(Br)cc(Br)cc1-c1[nH]c(Br)c(Br)c1Br [compound 1],IC50,P. vivax IspD,48 µM
same,IC50,A. thaliana IspD,13 µM
Cc1ccc(-n2sc3ccccc3c2=O)cc1S(=O)(=O)N1CCOCC1 [compound 7],EC50,P. falciparum strain 3D7 [1],4.3 ± 0.18 µM
same,IC50,PvIspD,0.045 ± 0.02 µM
same,IC50,PfIspD,0.45 ± 0.079 µM
"O=C(O)[C@@H]1Cc2c([nH]c3ccccc23)[C@@H](c2ccc(Cl)cc2Cl)N1 [compound 4, 1R,3S-MMV008138]",IC50,P. falciparum IspD,0.047 µM
"O=c1c2ccccc2sn1-c1cccc(-c2ccc(CN3CCOCC3)cc2)c1 [compound 13, 2-(4’-(morpholinomethyl)-[1,1’-biphenyl]-3-yl)benzo[d]isothiazol-3(2H)-one]",EC50,P. falciparum strain 3D7 [1],0.41 ± 0.082 µM
same,IC50,PvIspD,0.05 ± 0.016 µM
same,IC50,PfIspD,0.4 ± 0.082 µM
"O=c1c2ccccc2sn1-c1cccc(-c2ccc(C(F)(F)F)cc2)c1 [compound 10, 2-(4’-(trifluoromethyl)-[1,1’-biphenyl]-3-yl)benzo[d]isothiazol-3(2H)-one]",EC50,P. falciparum strain 3D7 [1],0.65 ± 0.021 µM
same,IC50,PvIspD,0.041 ± 0.018 µM
same,IC50,PfIspD,0.27 ± 0.015 µM
"CN1CCN(Cc2ccc(-c3cccc(-n4sc5ccccc5c4=O)c3)cc2)CC1 [compound 11, 2-(4’-((4-methylpiperazin-1-yl)methyl)-[1,1’-biphenyl]-3-yl)benzo[d]isothiazol-3(2H)-one]",EC50,P. falciparum strain 3D7 [1],0.42 ± 0.006 µM
same,IC50,PvIspD,0.062 ± 0.026 µM
same,increase in predicted aqueous solubility compared to 9,[2],100 fold
same,IC50,PfIspD,0.44 ± 0.075 µM
"O=c1c2ccccc2sn1-c1cccc(-c2ccc(Cl)cc2)c1 [compound 9, 2-(4’-chloro-[1,1’-biphenyl]-3-yl)benzo[d]isothiazol-3(2H)-one]",EC50,P. falciparum strain 3D7 [1],1.1 ± 0.16 µM
same,IC50,PvIspD,0.057 ± 0.013 µM
same,IC50,PfIspD,0.073 ± 0.02 µM
"COc1ccc(-c2cccc(-n3sc4ccccc4c3=O)c2)cc1 [compound 8, 2-(4’-methoxy-[1,1’-biphenyl]-3-yl)benzo[d]isothiazol-3(2H)-one]","decrease in sensitivity, PfIspD-C202A versus PfIspD-wt",PfIspD-C202A,6 fold
same,IPP rescue of parasite growth,P. falciparum strain 3D7 [3],did not observe rescue; also recorded: No rescue was observed
same,EC50,"P. falciparum strain 3D7 [3]; Plasmodium falciparum, 3D7, mean and SEM, n ≥ 3",0.98 ± 0.24 µM
same,IC50,EcIspD-A14C,0.44 ± 0.048 µM
same,EC50,P. falciparum strain 7G8,1.02 ± 0.25 µM
same,EC50,P. falciparum strain D6,0.8 ± 0.12 µM
same,DOXP levels compared to untreated parasites,MEP pathway,not affected
same,MEcPP levels compared to untreated parasites,MEP pathway,Significant decreases
same,EC50,[4],1.38 ± 0.19 µM
same,inhibition of recombinant EcIspD (wild type),EcIspD-wt,highly resistant to inhibition
Oc1c(Cc2ccccc2)c(Cl)cc2ncnn12 [3a],IC50,A. thaliana IspD,0.14 µM
"O=CN(O)CCCP(=O)(O)O [FSM, fosmidomycin, reference compound]",IPP rescue of parasite growth,P. falciparum strain 3D7 [3],rescue
same,MEcPP levels compared to untreated parasites,MEP pathway,Significant decreases
